Experimental data from patent publication US20260217706A1, “HETEROCYCLIC COMPOUNDS, PREPARATION METHOD THEREFOR AND USE THEREOF” (GUANGZHOU YUFAN NANTU BIOTECHNOLOGIES CO., LTD, priority 2023, published 2026).

How the values were obtained:
CBL-B protein = CBL-B protein (Homo sapiens, UniProt Q13191); assay: CBL-B binding experiment (Streptavidin-Tb cryptate / Ligand L1 displacement); settings: 8 nM CBL-B protein, 25° C., 60 minutes; Ki=Relative IC50/2
Procedure, shortened: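 Buffer was 20 mM HEPES pH 7.5, 150 mM NaCl, 0.01% Triton X-100, 0.5 mM TCEP and BSA. Ten-point compound dilutions were incubated with 8 nM CBL-B for 60 min at 25° C., then read by luminescence after another 60 min at room temperature. IC50 came from a four-parameter fit, with Ki = relative IC50/2.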

[1] = test system: anti-CD3 activated human PBMCs; assay: Effect of compounds on the level of IL-2 secretion by anti-CD3 activated human PBMCs (IL-2 ELISA); assay type: cell-based; settings: compound concentration at which fold change in IL-2 = 5; hPBMCs, CD3 antibody 2 μg/mL, 48 h, compound from 3 μM
Protocol: 2. Inoculate the resuspended cells into a 96-well cell culture plate at 200 ul/well of cell suspension, and incubate in a 37° C. cell incubator for 1 h;
3. Adjust the compound concentration with DMSO, starting at a final concentration of 3 μM, and perform a 3-fold dilution sequentially for 10 concentration gradients, with an additional DMSO control well set up; and
4. Adjust the CD3 antibody to an appropriate concentration to achieve a final concentration of 2 μg/mL, mix thoroughly, and incubate in a 37° C. cell incubator for 48h.
5. After 48 h, centrifuge at 1500 rpm for 5 min to collect the supernatant of the culture medium for the human IL-2 ELISA test.
The OD values obtained from the ELISA test are converted into the fold change (FC) in IL-2 concentration. […] The EC50 is calculated using GraphPad Prism. When the fold change=5, the corresponding compound concentration is CFC=5 (in nM).

Sequence of CBL-B protein (Q13191 whole entry): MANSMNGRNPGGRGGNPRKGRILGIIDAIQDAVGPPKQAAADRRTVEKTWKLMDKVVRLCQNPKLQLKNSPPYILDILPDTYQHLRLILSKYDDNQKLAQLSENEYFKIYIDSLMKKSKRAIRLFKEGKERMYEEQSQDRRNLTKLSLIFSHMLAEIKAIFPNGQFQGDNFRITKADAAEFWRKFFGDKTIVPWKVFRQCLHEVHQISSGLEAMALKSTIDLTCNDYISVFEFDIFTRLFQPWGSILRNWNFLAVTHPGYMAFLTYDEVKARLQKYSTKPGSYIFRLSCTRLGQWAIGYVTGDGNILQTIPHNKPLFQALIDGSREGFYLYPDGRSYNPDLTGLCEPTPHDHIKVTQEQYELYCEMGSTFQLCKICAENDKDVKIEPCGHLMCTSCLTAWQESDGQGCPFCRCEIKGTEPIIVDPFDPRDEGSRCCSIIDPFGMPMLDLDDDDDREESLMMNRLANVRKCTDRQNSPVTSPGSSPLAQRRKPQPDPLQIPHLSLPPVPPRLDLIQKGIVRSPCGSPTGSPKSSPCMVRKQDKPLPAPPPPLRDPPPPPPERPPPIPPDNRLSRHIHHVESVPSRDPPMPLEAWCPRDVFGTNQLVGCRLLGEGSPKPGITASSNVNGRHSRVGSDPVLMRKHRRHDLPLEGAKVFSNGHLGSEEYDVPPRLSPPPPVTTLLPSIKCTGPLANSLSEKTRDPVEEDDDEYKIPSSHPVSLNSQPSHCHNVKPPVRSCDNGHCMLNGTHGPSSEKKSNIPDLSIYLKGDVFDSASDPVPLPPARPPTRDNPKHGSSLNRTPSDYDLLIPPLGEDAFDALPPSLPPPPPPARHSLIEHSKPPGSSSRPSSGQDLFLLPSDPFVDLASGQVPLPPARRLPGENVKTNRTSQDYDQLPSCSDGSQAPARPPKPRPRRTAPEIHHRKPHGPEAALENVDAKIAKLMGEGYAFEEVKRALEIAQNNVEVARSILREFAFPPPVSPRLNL

Structure (SMILES) | Ki (CBL-B protein) [nM] | IL-2 CFC=5/nM [1] [nM]
C[C@H]1CCCN(Cc2cc(C(F)(F)F)c3cn(-c4cccc([C@]5(c6nncn6C)C[C@@H](C)C5)c4)c(=O)n3c2)C1 (racemic) [Compound T140, 2-(3-((1s,3R)-3-methyl-1-(4-methyl-4H-1,2,4-triazol-3-yl)cyclobutyl)phenyl)-6-(((S)-3-methylpiperidin-1-yl)methy 1)-8-(trifluoromethyl)imidazo[1,5-a]pyridin-3(2H)-one] | < 50 | <500
C[C@H]1CCCN(Cc2cc3c(C(F)(F)F)cn(-c4cccc([C@]5(c6nncn6C)C[C@@H](C#N)C5)c4)c(=O)c3[nH]2)C1 [Compound T137, (1R,3s)-3-(4-methyl-4H-1,2,4-triazol-3-yl)-3-(3-(2-(((S)-3-methylpiperidin-1-yl)methyl)-7-oxo-4-(trifluoromethyl)-1,7-dihydro-6H-pyrrolo[2,3-c]pyridin-6-yl)phenyl)cyclobutane-1-carbonitrile] |  | <500
C[C@H]1CCCN(Cc2cc3c(C(F)(F)F)cn(-c4cccc([C@]5(c6nncn6C)C[C@@H](CC#N)C5)c4)c(=O)c3[nH]2)C1 [Compound T139, 2-((1R,3s)-3-(4-methyl-4H-1,2,4-triazol-3-yl)-3-(3-(2-(((S)-3-methylpiperidin-1-yl)methyl)-7-oxo-4-(trifluoromethyl)-1,7-dihydro-6H-pyrrolo[2,3-c]pyridin-6-yl)phenyl)cyclobutyl)acetonitrile] |  | <500
CO[C@H]1C[C@@](c2cccc(-n3cc(C(F)(F)F)c4cc(CN5CCC[C@H]6C[C@H]65)[nH]c4c3=O)c2)(c2nncn2C)C1 [Compound T183] |  | <500
CO[C@H]1C[C@](c2cccc(-n3cc(C(F)(F)F)c4cc(CN5CCC[C@H]6C[C@H]65)[nH]c4c3=O)c2)(c2nncn2C)C1 [Compound T185] |  | <500

Further lines, with some results ahead:

Ki (CBL-B protein) [nM] | Structure (SMILES) | IL-2 CFC=5/nM [1] [nM]
< 50 | Cn1cnnc1C1(c2cccc(-n3cc(C(F)(F)F)c4cc(CN5CCCC(C(F)F)C5)[nH]c4c3=O)c2)CCC1 (racemic) [Compound T114, 6-[3-[1-(4-methyl-1,2,4-triazol-3-yl)cyclobutyl]phenyl]-2-[[rac-(3S)-3-(difluoromethyl)-1-piperidyl]methyl]-4-(trifluoromethyl)-1H-pyrrolo[2,3-c]pyridin-7-one] | <500
< 50 | CCN(C)Cc1cc2c(C(F)(F)F)cn(-c3cccc(C4(c5nncn5C)CCC4)c3)c(=O)c2[nH]1 [Compound T002, 2-((ethyl(methyl)amino)methyl)-6-(3-(1-(4-methyl-4H-1,2,4-triazol-3-yl)cyclobutyl)phenyl)-4-(trifluoromethyl)-1,6-dihydro-7H-pyrrolo[2,3-c]pyridin-7-one] | <500
< 50 | CCN(CC)Cc1cc2c(C(F)(F)F)cn(-c3cccc(C4(c5nncn5C)CCC4)c3)c(=O)c2[nH]1 [Compound T005, 2-(diethylaminomethyl)-6-[3-[1-(4-methyl-1,2,4-triazol-3-yl)cyclobutyl]phenyl]-4-(trifluoromethyl)-1H-pyrrolo[2,3-c]pyridin-7-one] | <500
< 50 | Cn1cnnc1C1(c2cccc(-n3cc(C(F)(F)F)c4cc(CN5CC6CC6C5)[nH]c4c3=O)c2)CCC1 (stereo not shown) [Compound T007, 2-((3-azabicyclo[3.1.0]hexan-3-yl)methyl)-6-(3-(1-(4-methyl-4H-1,2,4-triazol-3-yl)cyclobutyl)phenyl)-4-(trifluoromethyl)-1,6-dihydro-7H-pyrrolo[2,3-c]pyridin-7-one] | <500
< 50 | Cn1cnnc1C1(c2cccc(-n3cc(C(F)(F)F)c4cc(CNCCC5CC5)[nH]c4c3=O)c2)CCC1 [Compound T008, 2-[(2-cyclopropylethylamino)methyl]-6-[3-[1-(4-methyl-1,2,4-triazol-3-yl)cyclobutyl]phenyl]-4-(trifluoromethyl)-1H-pyrrolo[2,3-c]pyridin-7-one] | <500
